Experimental data reported in patent EP1247803A2, “Indolinone compounds suitable for modulation of protein kinases” (Sugen, Inc., priority 1996, dated 1998).

molecular target: T1, FLK-1 receptor (Mus musculus, UniProt P35918); experiment: FLK-1 ELISA (kinase activity of the FLK-1 receptor in FLK-1/NIH3T3 cells, VEGF stimulated); assay type: cell-based
T1 construct: expressed in transfected cells; host or cells: NIH3T3 C7#3
Method in brief: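 An ELISA using affinity-purified rabbit anti-FLK-1 antiserum on anti-rabbit IgG-coated plates measured VEGF-stimulated FLK-1 kinase activity. NIH3T3 C7#3 cells carrying FLK-1 were serum-starved (0.1% FBS) overnight, then exposed to compound (final 1:200 dilution, 0.5% DMSO) for two hours at 37 °C.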

T1 sequence (P35918 20-1345): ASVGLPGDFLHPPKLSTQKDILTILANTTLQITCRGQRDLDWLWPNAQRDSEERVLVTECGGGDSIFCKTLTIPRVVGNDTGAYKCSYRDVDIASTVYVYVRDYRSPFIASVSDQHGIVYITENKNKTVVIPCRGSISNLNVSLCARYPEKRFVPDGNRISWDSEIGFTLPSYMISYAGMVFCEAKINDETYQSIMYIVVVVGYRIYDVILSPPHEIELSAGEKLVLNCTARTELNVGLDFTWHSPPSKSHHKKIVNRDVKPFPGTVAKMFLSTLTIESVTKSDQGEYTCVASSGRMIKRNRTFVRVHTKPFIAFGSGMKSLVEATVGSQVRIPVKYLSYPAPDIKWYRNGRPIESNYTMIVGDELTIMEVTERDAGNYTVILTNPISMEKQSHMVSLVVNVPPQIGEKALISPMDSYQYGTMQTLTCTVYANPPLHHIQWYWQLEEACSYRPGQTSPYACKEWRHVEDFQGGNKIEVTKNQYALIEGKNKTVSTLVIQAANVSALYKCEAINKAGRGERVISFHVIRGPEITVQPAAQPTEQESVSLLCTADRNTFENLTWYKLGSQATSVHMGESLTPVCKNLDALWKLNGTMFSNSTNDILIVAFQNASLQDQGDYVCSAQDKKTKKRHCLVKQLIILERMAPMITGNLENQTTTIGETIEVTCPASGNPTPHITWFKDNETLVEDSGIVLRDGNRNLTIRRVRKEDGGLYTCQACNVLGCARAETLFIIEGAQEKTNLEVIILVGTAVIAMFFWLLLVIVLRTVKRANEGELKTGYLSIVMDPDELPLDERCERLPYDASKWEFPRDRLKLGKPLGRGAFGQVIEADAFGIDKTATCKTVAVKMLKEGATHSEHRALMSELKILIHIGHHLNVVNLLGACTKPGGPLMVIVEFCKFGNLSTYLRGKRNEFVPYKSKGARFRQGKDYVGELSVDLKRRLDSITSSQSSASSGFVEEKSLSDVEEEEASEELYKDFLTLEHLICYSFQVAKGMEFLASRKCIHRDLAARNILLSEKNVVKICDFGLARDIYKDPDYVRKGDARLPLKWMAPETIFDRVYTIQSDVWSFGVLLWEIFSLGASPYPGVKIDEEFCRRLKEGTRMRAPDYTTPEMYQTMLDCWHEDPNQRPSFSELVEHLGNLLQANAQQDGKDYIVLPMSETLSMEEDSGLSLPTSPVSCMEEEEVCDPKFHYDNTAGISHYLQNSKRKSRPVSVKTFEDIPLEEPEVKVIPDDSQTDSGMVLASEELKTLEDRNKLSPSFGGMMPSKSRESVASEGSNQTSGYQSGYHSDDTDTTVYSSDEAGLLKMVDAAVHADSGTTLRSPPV

SMILES | Fik Kinase %Inhibition
Cn1cccc1C=C1C(=O)Nc2c(Br)cc(Br)cc21 [10717/A04] | -4.5%
O=C1Nc2ccc(S(=O)(=O)Nc3ccc(C(F)(F)F)cc3)cc2C1=Cc1ccc[nH]1 [10717/E09] | -1.1%
COc1cccc(O)c1C=C1C(=O)Nc2ccc(S(=O)(=O)Nc3ccc(C(F)(F)F)cc3)cc21 [10717/E10] | 4.7%
Cc1[nH]c(C=C2C(=O)Nc3ccc(S(=O)(=O)Nc4ccc(C(F)(F)F)cc4)cc32)c(Br)c1Br [10717/E11] | 8.9%
CCOc1ccccc1C=C1C(=O)Nc2ccc(S(=O)(=O)N3CCOCC3)cc21 [10717/F02] | 2.2%
O=C1Nc2ccc(S(=O)(=O)N3CCOCC3)cc2C1=Cc1cccs1 [10717/F03] | 0.5%
Cn1cccc1C=C1C(=O)Nc2ccc(S(=O)(=O)N3CCOCC3)cc21 [10717/F04] | -0.1%
O=C1Nc2ccc(S(=O)(=O)N3CCOCC3)cc2C1=Cc1ccc(F)cc1 [10717/F05] | 3.2%
O=C1Nc2ccc(S(=O)(=O)N3CCOCC3)cc2C1=Cc1c[nH]c2ccccc12 [10717/F06] | 8.9%
O=C1Nc2ccc(CCCl)cc2C1=Cc1cccc(Br)c1 [10723/G10] | . 3.5%
CC(C)(C)c1cc(C=C2C(=O)Nc3ccc(CCCl)cc32)c(O)c(C(C)(C)C)c1 [10723/G11] | -4.1%
CN(C)c1ccc(C=C2C(=O)Nc3c(Br)cc(Br)cc32)c2ccccc12 [10724/A02] | 1.8%
O=C1Nc2c(Br)cc(Br)cc2C1=Cc1ccc(O)c([N+](=O)[O-])c1 [10724/A03] | -7.8%
O=C1Nc2c(Br)cc(Br)cc2C1=Cc1ccc([N+](=O)[O-])c(O)c1 [10724/A04] | -15.9%
O=C1Nc2c(Br)cc(Br)cc2C1=Cc1cc2c3c(c1O)CCCN3CCC2 [10724/A05] | -15.2%
CC(C)c1cc(C=C2C(=O)Nc3c(Br)cc(Br)cc32)cc(C(C)C)c1O [10724/A06] | -3.7%
O=C1Nc2c(Br)cc(Br)cc2C1=Cc1cc2ccccc2o1 [10724/A07] | 3.7%
O=C1Nc2c(Br)cc(Br)cc2C1=Cc1cccn1-c1ccc(Cl)cc1 [10724/A09] | -5.2%
CCc1ccc(C=C2C(=O)Nc3c(Br)cc(Br)cc32)o1 [10724/A10] | 1.6%

SMILES | Fik Kinase %Inhibition
Cc1csc2sc(C=C3C(=O)Nc4c(Br)cc(Br)cc43)c(C)c12 [10724/A11] | 12.8%
O=C1Nc2ccc(I)cc2C1=Cc1ccc(O)c([N+](=O)[O-])c1 [10724/B03] | -48.9%
CC(C)c1cc(C=C2C(=O)Nc3ccc(I)cc32)cc(C(C)C)c1O [10724/B06] | 13.4%
O=C1Nc2ccc(I)cc2C1=Cc1cc2ccccc2o1 [10724/B07] | -1.8%
O=C1Nc2ccc(I)cc2C1=Cc1cccn1-c1ccc(Cl)cc1 [10724/B09] | 3.5%
CCc1ccc(C=C2C(=O)Nc3ccc(I)cc32)o1 [10724/B10] | 8.5%
Cc1csc2sc(C=C3C(=O)Nc4ccc(I)cc43)c(C)c12 [10724/B11] | 9.0%
Cc1c(Br)ccc2c1C(=Cc1ccc(N(C)C)c3ccccc13)C(=O)N2 [10724/C02] | -0.3%
Cc1c(Br)ccc2c1C(=Cc1ccc(O)c([N+](=O)[O-])c1)C(=O)N2 [10724/C03] | -20.3%
Cc1c(Br)ccc2c1C(=Cc1ccc([N+](=O)[O-])c(O)c1)C(=O)N2 [10724/C04] | -18.6%
Cc1c(Br)ccc2c1C(=Cc1cc3c4c(c1O)CCCN4CCC3)C(=O)N2 [10724/C05] | -18.6%
Cc1c(Br)ccc2c1C(=Cc1cc(C(C)C)c(O)c(C(C)C)c1)C(=O)N2 [10724/C06] | -1.5%
Cc1c(Br)ccc2c1C(=Cc1cc3ccccc3o1)C(=O)N2 [10724/C07] | -1.2%
Cc1c(Br)ccc2c1C(=Cc1cccn1-c1ccc(Cl)cc1)C(=O)N2 [10724/C09] | 9.3%
CCc1ccc(C=C2C(=O)Nc3ccc(Br)c(C)c32)o1 [10724/C10] | -2.3%
Cc1c(Br)ccc2c1C(=Cc1sc3scc(C)c3c1C)C(=O)N2 [10724/C11] | 10.3%
CNS(=O)(=O)c1ccc2c(c1)C(=Cc1ccc(N(C)C)c3ccccc13)C(=O)N2 [10724/D02] | 12.4%
CNS(=O)(=O)c1ccc2c(c1)C(=Cc1ccc(O)c([N+](=O)[O-])c1)C(=O)N2 [10724/D03] | 0.1%
CNS(=O)(=O)c1ccc2c(c1)C(=Cc1ccc([N+](=O)[O-])c(O)c1)C(=O)N2 [10724/D04] | 0.5%

SMILES | Fik Kinase %Inhibition
CNS(=O)(=O)c1ccc2c(c1)C(=Cc1cc3c4c(c1O)CCCN4CCC3)C(=O)N2 [10724/D05] | -1.6%
CNS(=O)(=O)c1ccc2c(c1)C(=Cc1cc(C(C)C)c(O)c(C(C)C)c1)C(=O)N2 [10724/D06] | 12.4%
CNS(=O)(=O)c1ccc2c(c1)C(=Cc1cc3ccccc3o1)C(=O)N2 [10724/D07] | -2.6%
CNS(=O)(=O)c1ccc2c(c1)C(=Cc1cccn1-c1ccc(Cl)cc1)C(=O)N2 [10724/D09] | 0.9%
CCc1ccc(C=C2C(=O)Nc3ccc(S(=O)(=O)NC)cc32)o1 [10724/D10] | 3.7%
CNS(=O)(=O)c1ccc2c(c1)C(=Cc1sc3scc(C)c3c1C)C(=O)N2 [10724/D11] | 14.9%
CN(C)c1ccc(C=C2C(=O)Nc3ccc(S(=O)(=O)Nc4ccc(C(F)(F)F)cc4)cc32)c2ccccc12 [10724/E02] | 17.7%
O=C1Nc2ccc(S(=O)(=O)Nc3ccc(C(F)(F)F)cc3)cc2C1=Cc1ccc(O)c([N+](=O)[O-])c1 [10724/E03] | 10.6%
O=C1Nc2ccc(S(=O)(=O)Nc3ccc(C(F)(F)F)cc3)cc2C1=Cc1ccc([N+](=O)[O-])c(O)c1 [10724/E04] | 55.2%
O=C1Nc2ccc(S(=O)(=O)Nc3ccc(C(F)(F)F)cc3)cc2C1=Cc1cc2c3c(c1O)CCCN3CCC2 [10724/E05] | 13.8%
CC(C)c1cc(C=C2C(=O)Nc3ccc(S(=O)(=O)Nc4ccc(C(F)(F)F)cc4)cc32)cc(C(C)C)c1O [10724/E06] | 8.3%
O=C1Nc2ccc(S(=O)(=O)Nc3ccc(C(F)(F)F)cc3)cc2C1=Cc1cc2ccccc2o1 [10724/E07] | -3.6%
O=C1Nc2ccc(S(=O)(=O)Nc3ccc(C(F)(F)F)cc3)cc2C1=Cc1cccn1-c1ccc(Cl)cc1 [10724/E09] | 14.3%
CCc1ccc(C=C2C(=O)Nc3ccc(S(=O)(=O)Nc4ccc(C(F)(F)F)cc4)cc32)o1 [10724/E10] | 7.3%
Cc1csc2sc(C=C3C(=O)Nc4ccc(S(=O)(=O)Nc5ccc(C(F)(F)F)cc5)cc43)c(C)c12 [10724/E11] | 5.1%
CN(C)c1ccc(C=C2C(=O)Nc3ccc(CCCl)cc32)c2ccccc12 [10724/G02] | 15.1%
O=C1Nc2ccc(CCCl)cc2C1=Cc1ccc(O)c([N+](=O)[O-])c1 [10724/G03] | -8.4%
O=C1Nc2ccc(CCCl)cc2C1=Cc1ccc([N+](=O)[O-])c(O)c1 [10724/G04] | -7.9%
O=C1Nc2ccc(CCCl)cc2C1=Cc1cc2c3c(c1O)CCCN3CCC2 [10724/G05] | -0.1%
